Results from patent US12252701B2, “Chimeric antigen receptor T cell therapy” (KITE PHARMA, INC., priority 2020, dated 2025).
Read-outs that look alike come from different tables or passages of the source. One block for each compound: values may come before it.

Key:
[1] = test system: CD19 CAR T cells; assay: CAR T cell cytokine production (Luminex) under CD19 K562, KIP-1 or CD2/3/28 stimulation; settings: 72 h; for IC50: Homo sapiens, T-cell; for Suppression of cytokine production, IFNg (IC50) / Suppression of cytokine production, IL-6 (IC50): K562-CD19 stimulation
[2] = cited from earlier work
[3] = test system: CAR-T cells; assay: CAR-T cell expansion assay (KIP-1 or CD3/CD28 stimulation); settings: for % viabili.: CD3/CD28 stimulation; for % viabi.: KIP-1 stimulation
[4] = in vitro; settings: human

IC50 ([1]; read-out: Suppression of cytokine production, GMCSF (IC50), CD3/CD28 stimulation, 72 h): < 100 nM | IC50 ([1]; read-out: Suppression of cytokine production, GMCSF (IC50), K562-CD19 stimulation, 72 h): 377 nM | IC50 ([1]; read-out: Suppression of cytokine production, GMCSF (IC50), KIP-1 stimulation, 72 h): 273 nM | IC50 ([1]; read-out: Suppression of cytokine production, GzB (IC50), CD3/CD28 stimulation, 72 h): 2740 nM | IC50 ([1]; read-out: Suppression of cytokine production, GzB (IC50), K562-CD19 stimulation, 72 h): > 10000 nM | IC50 ([1]; read-out: Suppression of cytokine production, GzB (IC50), KIP-1 stimulation, 72 h): > 10000 nM | IC50 ([1]; read-out: Suppression of cytokine production, IFNg (IC50), CD3/CD28 stimulation, 72 h): > 10000 nM | IC50 ([1]; read-out: Suppression of cytokine production, IFNg (IC50), KIP-1 stimulation, 72 h): > 10000 nM | IC50 ([1]; read-out: Suppression of cytokine production, IL-2Ra (IC50), CD3/CD28 stimulation, 72 h): 144 nM | IC50 ([1]; read-out: Suppression of cytokine production, IL-2Ra (IC50), K562-CD19 stimulation, 72 h): < 100 nM | IC50 ([1]; read-out: Suppression of cytokine production, IL-2Ra (IC50), KIP-1 stimulation, 72 h): < 100 nM | IC50 ([1]; read-out: Suppression of cytokine production, IL-6 (IC50), CD3/CD28 stimulation, 72 h): < 100 nM | IC50 ([1]; read-out: Suppression of cytokine production, IL-6 (IC50), KIP-1 stimulation, 72 h): 1970 nM | IC50 ([1]; read-out: Suppression of cytokine production, IL-8 (IC50), CD3/CD28 stimulation, 72 h): < 100 nM | IC50 ([1]; read-out: Suppression of cytokine production, IL-8 (IC50), K562-CD19 stimulation, 72 h): < 100 nM | IC50 ([1]; read-out: Suppression of cytokine production, IL-8 (IC50), KIP-1 stimulation, 72 h): < 100 nM | IC50 ([1]; read-out: Suppression of cytokine production, IL-10 (IC50), CD3/CD28 stimulation, 72 h): < 100 nM | IC50 ([1]; read-out: Suppression of cytokine production, IL-10 (IC50), K562-CD19 stimulation, 72 h): < 100 nM | IC50 ([1]; read-out: Suppression of cytokine production, IL-10 (IC50), KIP-1 stimulation, 72 h): < 100 nM | IC50 ([1]; read-out: Suppression of cytokine production, MCP-1 (IC50), CD3/CD28 stimulation, 72 h): < 100 nM | IC50 ([1]; read-out: Suppression of cytokine production, MCP-1 (IC50), K562-CD19 stimulation, 72 h): < 100 nM | IC50 ([1]; read-out: Suppression of cytokine production, MCP-1 (IC50), KIP-1 stimulation, 72 h): 2580 nM | IC50 ([1]; read-out: Suppression of cytokine production, MIG (IC50), CD3/CD28 stimulation, 72 h): 549 nM | IC50 ([1]; read-out: Suppression of cytokine production, MIG (IC50), K562-CD19 stimulation, 72 h): < 100 nM | IC50 ([1]; read-out: Suppression of cytokine production, MIG (IC50), KIP-1 stimulation, 72 h): < 100 nM | IC50 ([1]; read-out: Suppression of cytokine production, MIP-1a (IC50), CD3/CD28 stimulation, 72 h): 361 nM | IC50 ([1]; read-out: Suppression of cytokine production, MIP-1a (IC50), K562-CD19 stimulation, 72 h): 167 nM | IC50 ([1]; read-out: Suppression of cytokine production, MIP-1a (IC50), KIP-1 stimulation, 72 h): 1420 nM | IC50 ([1]; read-out: Suppression of cytokine production, MIP-1b (IC50), CD3/CD28 stimulation, 72 h): < 100 nM | IC50 ([1]; read-out: Suppression of cytokine production, MIP-1b (IC50), K562-CD19 stimulation, 72 h): 149 nM | IC50 ([1]; read-out: Suppression of cytokine production, MIP-1b (IC50), KIP-1 stimulation, 72 h): 553 nM | IC50 ([1]; read-out: Suppression of cytokine production, Perforin (IC50), CD3/CD28 stimulation, 72 h): 1600 nM | IC50 ([1]; read-out: Suppression of cytokine production, Perforin (IC50), K562-CD19 stimulation, 72 h): < 100 nM | IC50 ([1]; read-out: Suppression of cytokine production, Perforin (IC50), KIP-1 stimulation, 72 h): 431 nM | IC50 ([1]; read-out: Suppression of cytokine production, TNFa (IC50), CD3/CD28 stimulation, 72 h): < 100 nM | IC50 ([1]; read-out: Suppression of cytokine production, TNFa (IC50), K562-CD19 stimulation, 72 h): < 100 nM | IC50 ([1]; read-out: Suppression of cytokine production, TNFa (IC50), KIP-1 stimulation, 72 h): 320 nM | Suppression of cytokine production, IFNg (IC50) [1]: Suppress | Suppression of cytokine production, IL-6 (IC50) [1]: Suppress
SMILES: N#CCC1(n2cc(-c3ncnc4[nH]ccc34)cn2)CN(C2CCN(C(=O)c3ccnc(C(F)(F)F)c3F)CC2)C1 [itacitinib]

SMILES: C[C@@H]1CCN(C(=O)CC#N)C[C@@H]1N(C)c1ncnc2[nH]ccc12 [tofacitinib]
Cmax ([2]; human, in vivo): 58 ng/mL | Protein binding ([2]; plasma protein binding, reported): 40% | % viabili. ([3]; 10 nM, Day 0): 84% | % viabili. ([3]; 10 nM, Day 4): 70.8% | % viabili. ([3]; 10 nM, Day 8): 80.9% | % viabili. ([3]; 10 nM, Day 12): 82.9% | % viabili. ([3]; 20 nM, Day 0): 84% | % viabili. ([3]; 20 nM, Day 4): 81.1% | % viabili. ([3]; 20 nM, Day 8): 70.1% | % viabili. ([3]; 20 nM, Day 12): 79.5% | % viabili. ([3]; 40 nM, Day 0): 84% | % viabili. ([3]; 40 nM, Day 4): 89.2% | % viabili. ([3]; 40 nM, Day 8): 73.5% | % viabili. ([3]; 40 nM, Day 12): 74.8% | % viabili. ([3]; 60 nM, Day 0): 84% | % viabili. ([3]; 60 nM, Day 4): 93.1% | % viabili. ([3]; 60 nM, Day 8): 86.6% | % viabili. ([3]; 60 nM, Day 12): 74.5% | % viabili. ([3]; 80 nM, Day 0): 84% | % viabili. ([3]; 80 nM, Day 4): 91.7% | % viabili. ([3]; 80 nM, Day 8): 86.3% | % viabili. ([3]; 80 nM, Day 12): 77% | % viabili. ([3]; 100 nM, Day 0): 84% | % viabili. ([3]; 100 nM, Day 4): 94.3% | % viabili. ([3]; 100 nM, Day 8): 85.5% | % viabili. ([3]; 100 nM, Day 12): 73.9% | % viabi. ([3]; 10 nM, Day 0): 84% | % viabi. ([3]; 10 nM, Day 4): 77.9% | % viabi. ([3]; 10 nM, Day 8): 61.2% | % viabi. ([3]; 10 nM, Day 12): 85.2% | % viabi. ([3]; 20 nM, Day 0): 84% | % viabi. ([3]; 20 nM, Day 4): 84.7% | % viabi. ([3]; 20 nM, Day 8): 64.9% | % viabi. ([3]; 20 nM, Day 12): 79.3% | % viabi. ([3]; 40 nM, Day 0): 84% | % viabi. ([3]; 40 nM, Day 4): 84.3% | % viabi. ([3]; 40 nM, Day 8): 77.5% | % viabi. ([3]; 40 nM, Day 12): 76% | % viabi. ([3]; 60 nM, Day 0): 84% | % viabi. ([3]; 60 nM, Day 4): 82.3% | % viabi. ([3]; 60 nM, Day 8): 70.2% | % viabi. ([3]; 60 nM, Day 12): 76.1% | % viabi. ([3]; 80 nM, Day 0): 84% | % viabi. ([3]; 80 nM, Day 4): 81.8% | % viabi. ([3]; 80 nM, Day 8): 69.7% | % viabi. ([3]; 80 nM, Day 12): 73.4% | % viabi. ([3]; 100 nM, Day 0): 84% | % viabi. ([3]; 100 nM, Day 4): 73.2% | % viabi. ([3]; 100 nM, Day 8): 72.7% | % viabi. ([3]; 100 nM, Day 12): 79.4% | effect on T cell expansion ([3]; at the doses tested (Table 40)): moderate effects | impacts on expansion in further dose titrations ([3]; compared with upadacitinib and baricitinib): less severe in comparison | Suppression of cytokine production, IFNg (IC50) [1]: Suppress | Suppression of cytokine production, IL-6 (IC50) [1]: Suppress | viability at 0 day, 50 nM [4]: 75% | viability at 0 day, 100 nM [4]: 75% | viability at 4 day, 50 nM [4]: 67.7% | viability at 4 day, 100 nM [4]: 61.8% | viability at 8 day, 50 nM [4]: 74.2% | viability at 8 day, 100 nM [4]: 64.7% | viability at 12 day, 50 nM [4]: 80.1% | viability at 12 day, 100 nM [4]: 85.2%
